≈ marks a conversion by molar mass, not a printed value. Like-named read-outs stand apart in the source and are kept apart here. *1 amine or outer side, *2 acyl side, *3 side chain or, on linkers, in order; H or OH if unused. Where a SMILES comes first, the peptide text is derived from it. Bridges are numbered along the chain shown (N, C = ends). [ ]: non-standard residue; d: D form. The star is where a group is joined. pTerphenylCO(4''-OnC5H11) = CCCCCOc1ccc(-c2ccc(-c3ccc(C(=O)*)cc3)cc2)cc1; Orn(4R-OH,5R-OH) = O=C([C@H](C[C@@H](O)[C@@H](O)N[*:3])N[*:1])[*:2]; hTyr(3S-OH,4S-OH) = N[C@H](C(=O)O)[C@H](O)[C@@H](O)c1ccc(O)cc1; Pro(3S-OH,4S-Me) = C[C@H]1CN[C@H](C(=O)O)[C@H]1O; Hyp = O=C(O)[C@@H]1C[C@@H](O)CN1
How the values were obtained:
THLE-2 cells = test: cells; assay type: cell-based; conditions: Homo sapiens
Protocol: The effects of ANF and RZF and their dehydroxylated derivatives 1 and 2 on the viability of human cells were further evaluated in an assay with THLE-2 cells, which are a transformed human liver epithelial cell line. These cells express phenotypic characteristics of normal adult liver epithelial cells.
THLE-2 cells (ATCC, cat. no. CRL2706) were cultured in 384-well plates coated with BEBM (Lonza, cat. no CC3170) containing 100 μg/mL BSA, 1:100 fibronectin (Sigma, cat. no. F0895), and a 1:100 PureCol EZ Gel Solution (Sigma, cat. no. 5074) for 50–60 min at 37 °C. THLE-2 cells were plated at a density of 2.5 × 10^3 cells/well in the coated plates in a total volume of 20 μL. Culture media were BEGM supplemented with 5 ng/mL hEGF (Sigma, cat. no. E5036), 70 ng/mL phosphoethanolamine (Sigma, cat. no. P0503), and 10% fetal bovine serum. Plates were incubated overnight at 37 °C, 95% humidity, and 5% CO2. The culture medium was replaced with 50 μL of a fresh medium, and compounds were applied to the cells in triplicate. Plates were cultured for another 72 h, and ATP was quantified using a CellTiter-Glo kit (Promega #G7573) according to the manufacturer’s protocol. The luminescence signal was detected using a PHERAstar FS (BMG Labtech).

C. glabrata = test: Minimum inhibitory concentration broth double-dilution assay; assay type: cell-based, Candida glabrata; conditions: 24 h, 30 °C
Protocol: (§1) The antifungal activities of compounds 1 and 2 were evaluated against a panel of 50 strains of C. albicans and C. glabrata (Table S4), including echinocandin-resistant strains that were constructed by introducing mutations within and near the defined hotspots in the FKS1 and/or FKS2 genes.[27] To evaluate antifungal activity, we determined MIC values. The MIC was defined as the lowest drug concentration that led to turbidity (measured at 600 nm) of less than or equal to 35% of that of the untreated culture. As controls, we tested CSF, MCF, ANF, and RZF.
(§2) All of the tested compounds were dissolved in anhydrous DMSO to a concentration of 5 mg/mL. Candida strains were streaked from a glycerol stock onto YPAD agar plates and grown for 24 h at 30 °C. Colonies were suspended in 1 mL of PBS and diluted to an O.D. of 0.01 at 600 nm with YPAD broth and added into flat-bottom 96-well microplates (Corning) containing a gradient of twofold dilutions per tested compound with concentrations ranging from 64 to 0.0009 μg/mL. Control wells with no drug and blank wells without yeast cells containing YPAD only were also prepared. […] Each concentration was tested in triplicate, and results were confirmed by at least two independent sets of experiments.

Hs 578T = test: Phenotypic viability assay of GFP reporter cell line; assay type: cell-based; conditions: Homo sapiens; Hs 578T expressing GFP, 24 h, mean ± SD
Protocol: (§3) In this analysis, we used HCT-116, a human colorectal carcinoma cell line; UACC-62, a human melanoma cell line; Hs 578T, a human mammary gland carcinoma cell line, and SF-295, a human glioblastoma cell line. […] The highest concentration of the echinocandins used for the cell viability tests was determined based on the reported maximal plasma concentrations (Cmax) of ANF and RZF measured in humans. A Cmax of approximately 7 μM was measured during a pharmacokinetic study of ANF in patients with candidemia or invasive candidiasis who were treated with a 200 mg loading dose on day 1, followed by a daily 100 mg maintenance dose.[64]
(§4) Human cell lines HCT-116, UACC-62, Hs 578T, and SF-295 were obtained from the Life Sciences Core Facilities of the Nancy & Stephen Grand Israel National Center for Personalized Medicine. Cell lines were grown in an RPMI medium (Gibco, cat. no. 21875-034) supplemented with 10% fetal calf serum (Biological Industries, cat. no. 04-007-1A), Pen/Strep (Biological Industries, cat. no. 03-031-1B), and glutamine (Biological Industries, cat. no. 03-020-1B). GFP was introduced into cells using TALENS according to a previously reported protocol.[73] GFP cells were selected by FACS and propagated.
(§5) Assay-ready plates were designed using in-house software (CHEMPION, INCPM software development team) and prepared in 384-well Greiner plates (cat. no. 781091) using an Echo 555 Acoustic Liquid Handler (Labcyte). The final DMSO concentration in all samples was 0.4%. Prior to the experiment, cells were trypsinized and counted using a Countess cytometer. Cells were then diluted to 40,000 cells/mL in a fresh medium. Cells (50 μL/well; 2000 cells/well) were then dispensed with a Thermo Combi dispenser into plates containing predispensed compounds. After 30 min at room temperature to ensure uniform adherence of cells, the plates were moved to an automated incubator (Liconic STX44) and incubated at 37 °C. An automated confocal microscope with a 4× S Fluor lens (Molecular Devices ImageExpress) was used to acquire images of GFP-expressing cells after 24 h of incubation. Images were then analyzed using MetaExpress with a custom protocol (Custom Module Editor), and data were annotated and normalized using Genedata Screener software. Final normalized data were then loaded into CDD Vault software for comparative data visualization.

C. albicans = test: Minimum inhibitory concentration broth double-dilution assay; assay type: cell-based, Candida albicans; conditions: 24 h, 30 °C
Protocol: as §1, §2

UACC-62 = test: cells; assay type: cell-based; conditions: Homo sapiens; UACC-62 expressing GFP, 24 h, mean ± SD; read-out: IC50 (cell viability)
Protocol: as §3, §4, §5

SF-295 = test: cells; assay type: cell-based; conditions: Homo sapiens; SF-295 expressing GFP, 24 h, mean ± SD; read-out: IC50 (cell viability)
Protocol: as §3, §4, §5

`CCCCCOc1ccc(-c2ccc(-c3ccc(C(=O)N[C@H]4C[C@@H](O)[C@@H](O)NC(=O)[C@@H]5[C@@H](O)[C@@H](C)CN5C(=O)[C@H]([C@@H](C)O)NC(=O)[C@H]([C@H](O)[C@@H](O)c5ccc(O)cc5)NC(=O)[C@@H]5C[C@@H](O)CN5C(=O)[C@H]([C@@H](C)O)NC4=O)cc3)cc2)cc1` [ANF, anidulafungin] ({pTerphenylCO(4''-OnC5H11)}-[Orn(4R-OH,5R-OH)]T[Hyp][hTyr(3S-OH,4S-OH)]T[Pro(3S-OH,4S-Me)]; lactam 1-C) was tested, and the IC50 (THLE-2 cells; THLE-2, 72 h of incubation, ranges for ANF and 1 and for RZF and 2 stated jointly, read-out: IC50 value (THLE-2 viability)) was 36 to 41 µM, the IC50 (THLE-2 cells; THLE-2, 72 h, ATP luminescence, read-out: IC50 (cell viability)) was 40.6 ± 2.9 µM and the MIC (C. glabrata; #9 C. glabrata EF1620) was 0.008 µg/mL (≈ 0.00702 µM). It also gave an MIC (C. glabrata; #10 C. glabrata TGL00277) of over 64 µg/mL, an MIC (C. glabrata; #11 C. glabrata TGL00275) of 4 µg/mL (≈ 3.51 µM) and an MIC (C. glabrata; #12 C. glabrata CST78) of 0.004 µg/mL (≈ 0.00351 µM). The MIC (C. glabrata; #13 C. glabrata TGL00265) was 4 µg/mL (≈ 3.51 µM), the MIC (C. glabrata; #14 C. glabrata TGL00264) was 32 µg/mL (≈ 28.1 µM) and the MIC (C. glabrata; #15 C. glabrata TGL00263) was 2 µg/mL (≈ 1.75 µM). For the same molecule, the MIC (C. glabrata; #16 C. glabrata TGL00065) was 8 µg/mL (≈ 7.02 µM), the MIC (C. glabrata; #17 C. glabrata CST34) was 0.008 µg/mL (≈ 0.00702 µM) and the MIC (C. glabrata; #18 C. glabrata TGL00258) was over 64 µg/mL. For the same molecule, the MIC (C. glabrata; #19 C. glabrata TGL00256) was 2 µg/mL (≈ 1.75 µM), the MIC (C. glabrata; #20 C. glabrata TGL00107) was over 64 µg/mL and the MIC (C. glabrata; #21 C. glabrata TGL00056) was over 64 µg/mL. It also gave an MIC (C. glabrata; #22 C. glabrata M12) of 0.002 µg/mL (≈ 0.00175 µM), an MIC (C. glabrata; #23 C. glabrata TGL00270) of 4 µg/mL (≈ 3.51 µM) and an MIC (C. glabrata; #24 C. glabrata TGL00269) of 0.25 µg/mL (≈ 0.219 µM). For the same molecule, the MIC (C. glabrata; #25 C. glabrata TGL00268) was over 64 µg/mL, the MIC (C. glabrata; #26 C. glabrata TGL00268) was over 64 µg/mL and the MIC (C. glabrata; #27 C. glabrata EB0911) was 0.004 µg/mL (≈ 0.00351 µM). It also gave an MIC (C. glabrata; #28 C. glabrata TGL00261) of 2 µg/mL (≈ 1.75 µM), an MIC (C. glabrata; #29 C. glabrata TGL00109) of over 64 µg/mL and an MIC (C. glabrata; #30 C. glabrata TGL00259) of 16 µg/mL (≈ 14 µM). For the same molecule, the IC50 (Hs 578T) was over 40 µM, the MIC (C. albicans; #1 C. albicans Sc5314) was 0.004 µg/mL (≈ 0.00351 µM) and the MIC (C. albicans; #2 C. albicans DPL1015 (DP-A15)) was 0.063 µg/mL (≈ 0.0553 µM). The MIC (C. albicans; #3 C. albicans DPL1016 (DP-A15-10)) was 4 µg/mL (≈ 3.51 µM), the MIC (C. albicans; #4 C. albicans T-2068 (DP-C42)) was 2 µg/mL (≈ 1.75 µM) and the MIC (C. albicans; #5 C. albicans T-2069 (DP-85)) was 2 µg/mL (≈ 1.75 µM). It also gave an MIC (C. albicans; #6 C. albicans (DP-89)) of 2 µg/mL (≈ 1.75 µM), an MIC (C. albicans; #7 C. albicans T-2076 (DP-194)) of 0.5 µg/mL (≈ 0.438 µM) and an MIC (C. albicans; #8 C. albicans T-2077 (DP-205)) of 0.5 µg/mL (≈ 0.438 µM). For the same molecule, the IC50 (UACC-62) was 34.5 ± 4.15 µM and the IC50 (SF-295) was 19.3 ± 1.97 µM.
